Assay results: ChEMBL document CHEMBL1127242, “Conformationally constrained HIV-1 protease inhibitors” (Bioorg Med Chem Lett, 1994)

Molecular target: Human immunodeficiency virus type 1 protease (Human immunodeficiency virus 1, UniProt Q72874)
Assay: Compound was tested for inhibitory activity against Human immunodeficiency virus (HIV-1) protease

SMILES	IC50 [nM]
CC(C)(C)OC(=O)N[C@@H](Cc1ccccc1)[C@@H](O)C[C@]1(Cc2ccccc2)CCN([C@@H]2CSCc3ccccc32)C1=O	111
O=C(N[C@@H](Cc1ccccc1)[C@@H](O)C[C@]1(Cc2ccccc2)CCN([C@@H]2CS(=O)(=O)Cc3ccccc32)C1=O)O[C@H]1CCOC1	1.8
C[C@@H]1CC[C@@H](O)[C@H]1N1CC[C@@](Cc2ccccc2)(C[C@H](O)[C@H](Cc2ccccc2)NC(=O)OC(C)(C)C)C1=O	14
CC(C)(C)OC(=O)N[C@@H](Cc1ccccc1)[C@@H](O)C[C@]1(Cc2ccccc2)CCN([C@@H]2CS(=O)(=O)Cc3ccccc32)C1=O	17
CC(C)[C@@H](CO)N1CC[C@@](Cc2ccccc2)(C[C@H](O)[C@H](Cc2ccccc2)NC(=O)OC(C)(C)C)C1=O	35
CC(C)(C)OC(=O)N[C@@H](Cc1ccccc1)[C@@H](O)CC1(Cc2ccccc2)CCN([C@H]2c3ccccc3C[C@H]2O)C1=O (single isomer, unassigned)	37
O=C(N[C@@H](Cc1ccccc1)[C@@H](O)C[C@@H](Cc1ccccc1)C(=O)N[C@H]1c2ccccc2C[C@H]1O)O[C@H]1CCOC1	0.06
